In patent US8178530B2, “Imidazolopyrazine compounds useful for the treatment of degenerative and inflammatory diseases” (Janssen Pharmaceutica NV, priority 2006, dated 2012):

What was measured:
MAPKAPK5 = biological target: T1, MAPKAPK5 (Homo sapiens, UniProt Q8IW41); assay: MAPKAP-K5 assay (FlashPlate, 33P-ATP); type: biochemical; details: 0.6 μM ATP, 30 minutes at room temperature
T1 construct: 1 mU MAPKAP-K5
T1 sequence (Q8IW41 1-473): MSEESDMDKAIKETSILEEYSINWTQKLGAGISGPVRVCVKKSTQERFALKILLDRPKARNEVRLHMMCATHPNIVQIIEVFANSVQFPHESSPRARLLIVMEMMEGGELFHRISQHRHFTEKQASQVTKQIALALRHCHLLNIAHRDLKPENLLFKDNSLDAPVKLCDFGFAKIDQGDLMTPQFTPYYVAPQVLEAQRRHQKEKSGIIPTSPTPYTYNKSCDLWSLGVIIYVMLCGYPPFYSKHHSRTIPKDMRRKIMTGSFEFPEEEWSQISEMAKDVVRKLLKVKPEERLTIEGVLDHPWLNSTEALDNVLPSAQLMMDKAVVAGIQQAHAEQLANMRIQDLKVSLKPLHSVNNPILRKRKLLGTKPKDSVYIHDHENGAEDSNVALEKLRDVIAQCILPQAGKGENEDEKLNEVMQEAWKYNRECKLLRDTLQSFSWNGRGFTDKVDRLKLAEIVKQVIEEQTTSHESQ
Description: 3 μM MAPKAP-K5 peptide substrate

MMP1 expression by SFs = assay: 'MMP assay': MMP1 expression by 'complex trigger' activated synovial fibroblasts (MMP1 ELISA); type: cell-based, human; details: Homo sapiens, Fibroblast, RASFs, 48 hrs
Description: A 384-well format ELISA for measurement of MMP1 is developed. Various primary antibodies are tested, as well as various ELISA protocols. The following protocol is developed and validated to measure MMP1 levels in SF supernatant in 384 well plates: white Lumitrac 600 384 well plates (Greiner) are coated with 2 μg/mL anti-MMP1 antibody MAB1346 (Chemicon). The antibody is diluted in buffer 40 (1.21 g Tris base (Sigma), 0.58 g NaCl (Calbiochem) and 5 ml 10% NaN3 (Sigma) in 1 L milliQ water and adjusted to pH 8.5). After overnight incubation at 4° C., plates are washed with PBS (80 g NaCl, 2 g KCl (Sigma), 11.5 g Na2HPO4.7H2O and 2 g KH2PO4 in 10 L milliQ; pH 7.4) and blocked with 100 μL/well Casein buffer (2% Casein (VWR International) in PBS). Next day, casein buffer is removed from ELISA plates and replaced by 50 μL/well EC buffer (4 g casein, 2.13 g Na2HPO4 (Sigma), 2 g bovine albumin (Sigma), 0.69 g NaH2PO4.H2O (Sigma), 0.5 g CHAPS (Roche), 23.3 g NaCl, 4 mL 0.5 M EDTA pH 8 (Invitrogen), 5 mL 10% NaN3 in 1 L milliQ and adjusted to pH 7.0). 0.25 mM DTT (Sigma) is added to the thawed samples plates. After removal of the EC buffer, 20 μL of sample is transferred to the ELISA plates. After overnight incubation at 4° C. plates are washed twice with PBS and once with PBST (PBS with 0.05% Tween-20 (Sigma)) and incubated with 35 μL/well biotinylated anti-MMP1 antibody solution (R&D). This secondary antibody is diluted in buffer C (0.82 g NaH2PO4.H2O, 4.82 g Na2HPO4, 46.6 g NaCl, 20 g bovine albumin and 4 mL 0.5M EDTA pH 8 in 2 L milliQ and adjusted to pH 7.0) at a concentration of 5 μg/mL. After 2 h of incubation at RT, plates are washed as described above and incubated with 50 μL/well streptavidin-HRP conjugate (Biosource). Streptavidin-HRP conjugate is diluted in buffer C at a concentration of 0.25 μg/mL. After 45 min, plates are washed as described above and incubated for 5 min with 50 μL/well BM Chem ELISA Substrate (Roche). Readout is performed on the Luminoscan Ascent Luminometer (Labsystems) with an integration time of 200 msec or with an Envision reader (Perkin Elmer).
The increase of MMP1 expression by SFs upon treatment with cytokines relevant in the field of RA (TNF-α, IL1β and OSM) or a combination thereof is shown in FIG. 2 as white bars. For this experiment, SFs are seeded in 96 well plates, 3,000 cells/well. 24 h later, the medium is changed to M199 medium supplemented with 1% FBS. One day after the medium change, cytokines or combinations thereof are added to the cultures, each cytokine being added to a final concentration of 25 ng/mL. 72 h after cytokine addition, the supernatant is collected and processed in the MMP1 ELISA as described in the protocol given above. In parallel with this experiment, SFs are triggered, using the same protocol, with the supernatant of THP1 cells (2-fold diluted in M199+1% FBS) treated with the same cytokines or combinations of cytokines for 48 h in M199 medium+1% FBS. The induction of the MMP1 expression by SFs triggered with the supernatants of TNF-α-treated THP1 cells is stronger (>4.5 fold induction) as compared to the SFs triggered with recombinant TNF-α alone (3-fold induction) and almost equals the 5-fold induction obtained by a mixture of 3 purified cytokines (TNF-α, IL1βb, OSM). […] As the role of TNF-α in the RA pathogenesis is validated (TNF-α-blockers such as Infliximab and Etanercept show some efficacy in the treatment of RA patients) and the THP-1 cells are representative for monocytes/macrophages present in the joint of RA patients, the TNF-α-based trigger mixture prepared by contacting THP-1 cells with TNF-α will contain factors present in the joints of RA patients and subsequently is relevant to RA. This TNF-α-based complex trigger, further referred to as the ‘complex trigger’, will further be used as basis for the ‘MMP assay’.
Dexamethasone is shown to dose-dependently reduce amounts of MMP1 produced by complex trigger activated SFs. […]

Compound	IC50 (MAPKAPK5) [µM]	EC50 (MMP1 expression by SFs) [µM]
c1cn2c(-c3nn[nH]n3)cnc(Nc3ccc(N4CCOCC4)cc3)c2n1 [Compound 62]	> 1	> 1
CCN(CCO)c1ccc(Nc2ncc(-c3ccc(N)cc3)n3ccnc23)cc1 [Compound 6]	> 1	> 1
CN1CCN(c2ccc(Nc3ncc(-c4ccc(C(=O)N5CCCC5)cc4)n4ccnc34)cc2)CC1 [Compound 115]	> 1	> 1
NC(=O)c1cc(-c2cnc(Nc3ccc(C4CCN(CC(F)(F)F)CC4)cc3)c3nccn23)cs1 [Compound 194]	> 1	0.501 to 1
CCN(CC)CCNC(=O)c1ccc(Nc2ncc(-c3nn[nH]n3)n3ccnc23)cc1 [Compound 68]	> 1	> 1
NC(=O)c1ccc(-c2cnc(Nc3cccc(N4CCOCC4)c3)c3nccn23)cc1 [Compound 172]	> 1	> 1
Cc1cc(-c2cnc(Nc3ccc(N4CCOCC4)cc3)c3nccn23)ccc1C(N)=O [Compound 185]	> 1	0.501 to 1
CN1CCN(c2ccc(Nc3ncc(-c4ccc(=O)[nH]c4)n4ccnc34)cc2)CC1 [Compound 109]	> 1	> 1
NC(=O)CN1CCC(c2ccc(Nc3ncc(-c4ccc5c(c4)CNC5=O)n4ccnc34)cc2)CC1 [Compound 226, 2-(4-{4-[5-(1-Oxo-2,3-dihydro-1H-isoindol-5-yl)-imidazo[1,2-a]pyrazin-8-ylamino]-phenyl}piperidin-1-yl)acetamide]	0.101 to 0.5	> 1
O=C1NCc2cc(-c3cnc(Nc4ccccc4)c4nccn34)ccc21 [Compound 213]	0.101 to 0.5	0.101 to 0.5
CCN(CC)CCNC(=O)c1ccc(Nc2ncc(-c3cnc(O)nc3O)n3ccnc23)cc1 [Compound 80]	> 1	> 1
O=C1NCc2oc(-c3cnc(Nc4ccc(N5CCOCC5)cc4)c4nccn34)cc21 [Compound 217, 2-[8-(4-Morpholin-4-yl-phenylamino)-imidazo[1,2-a]pyrazin5-yl]-5,6-dihydro-furo[2,3-c]pyrrol-4-one]	0.101 to 0.5	> 1
COc1cc(Nc2ncc(-c3csc(C(N)=O)c3)n3ccnc23)ccc1C(=O)NCc1ccccc1 [Compound 191]	> 1	> 1
CN(C)c1cc(-c2cnc(Nc3ccc(N4CCOCC4)cc3)c3nccn23)ccn1 [Compound 111, [5-(2-Dimethylamino-pyridin-4-yl)-imidazo[1,2-a]pyrazin-8-yl]-(4-morpholin-4-yl-phenyl)-amine]	> 1	> 1
CC(C)Oc1ccc(Nc2ncc(-c3ccc(C(N)=O)c(F)c3)n3ccnc23)cc1 [Compound 148]	> 1	0.501 to 1
CCN(CC)CCNC(=O)c1ccc(Nc2ncc(-c3c(C)n[nH]c3C)n3ccnc23)cc1 [Compound 81]	> 1	> 1
NC(=O)c1ccc(-c2cnc(Nc3ccc(C(=O)NCCO)cc3)c3nccn23)cc1 [Compound 49]	> 1	> 1
CCN(CC)CCNC(=O)c1ccc(Nc2ncc(-c3cn[nH]c3)n3ccnc23)cc1OC [Compound 48]	> 1	> 1
CCN(CCO)c1ccc(Nc2ncc(-c3cn[nH]c3)n3ccnc23)c(C)c1 [Compound 12]	> 1	> 1
O=C(NCc1cccnc1)c1ccc(Nc2ncc(-c3cc[nH]c(=O)c3)n3ccnc23)cc1 [Compound 108, 4-[5-(2-Oxo-1,2-dihydropyridin-4-yl)imidazo[1,2-a]pyrazin-8-ylamino]-N-pyridin-3-ylmethyl benzamide]	0.501 to 1	0.101 to 0.5
N#Cc1[nH]ncc1-c1cnc(Nc2ccc(N3CCOCC3)cc2)c2nccn12 [Compound 212, 4-[8-(4-Morpholin-4-yl-phenylamino)-imidazo[1,2-a]pyrazin-5-yl]-2H-pyrazole-3-carbonitrile]	0.101 to 0.5	0.101 to 0.5
CCN(CC)CCNC(=O)c1ccc(Nc2ncc(-c3ccc(S(C)(=O)=O)cc3)n3ccnc23)cc1 [Compound 79]	> 1	> 1
